Experimental data from patent publication US8367098B2, “Unique combinations of antimicrobial compositions” (The Population Council, Inc., priority 2002, dated 2013).

Columns and labels:
[1] = Diffusion of NES through dialysis membrane (HPLC); type: physicochemical; conditions: membrane cutoff 1000, HPLC
Excerpt: We examined diffusion of NES through a dialysis membrane with a molecular weight cutoff of 1000. The molecular weight of NES is 370. […] Results are illustrated in FIG. 10. […] However, the rate of diffusion observed through the dialysis membrane cannot be related to the rate of diffusion that would be observed in the human vagina as the rate of diffusion was dependant on the surface area of the dialysis bag. Conditions in the vagina would be different.
Diffusion of NES from CARRA/NES was investigated by two different methods, membrane dialysis and Ultrafree-15 centrifugation. In the membrane dialysis experiments, the membrane cutoff is 1,000, and diffusion of NES was measured by HPLC. […] In the Ultrafree-15 centrifugation experiments, a Millipore, Ultrafree-15 centrifugal filter and tube assembly was employed, which allows the passage of molecules of a MW<500 pass through; NES MW is 370.

[2] = test system: HIV-1; conditions: p24 ELISA and RT; cited from earlier work
[3] = in vivo; cited from earlier work
[4] = in vivo, po; cited from earlier work

Row | Compound | effect on HIV-1 production [2] | further results
1 | C=C1C[C@H]2[C@@H]3CCC4=CC(=O)CC[C@@H]4[C@H]3CC[C@]2(C)[C@@]1(OC(C)=O)C(C)=O [NES, 16-methylene-17α-acetoxy-19-norpregn-4-ene-3,20-dione] | – | diffusion of NES through dialysis membrane [1]: diffused from the dialysis bag at a constant rate
2 | CC(=O)[O-].CC(=O)[O-].[Cd+2] [cadmium acetate] | inhibited HIV-1 production | –
3 | [Cl][Hg][Cl] [mercury chloride] | inhibited HIV-1 production | –
4 | [Cl-].[Cl-].[Zn+2] [zinc chloride] | inhibited HIV-1 production | –
5 | Carrageenan | – | toxicity by oral, dermal, and inhalation routes [3]: non-toxic; absorption from the gastrointestinal tract [4]: virtually non-existent
